The source of these data is patent US9586993B2, “CD44v6-derived peptides for treating pancreatic cancer” (AMCURE GMBH, priority 2012, dated 2017).

This experiment deals with L3.6p1 pancreatic carcinoma cells. The experiment is described as follows: Human orthotopic model, L3.6p1 cells in the pancreas of nude mice. In kind it is in vivo, mouse. Particulars: for outgrowth / size of the primary tumor: 20 μg per injection i.p. three times per week for three weeks. How it is done: In the case of the human orthotopic model, L3.6p1 pancreatic carcinoma cells (passage 24-26) were suspended in Hank's balanced salt solution (Invitrogen, Karlsruhe, Germany) after trypsinization. The cells were injected orthotopically in the pancreas of male nude mice as described (Bruns C J et al. (1999) Neoplasia 1(1):50-62). Two groups of 15 mice each were injected i.p. 7 days later with either the human v6 peptide respectively rat control peptide (20 μg). For all experiments described and depicted herein either the rat 14mer control peptide or the human 14mer peptide were used. All experiments were then repeated with the rat 5mer control peptide or the human 5mer peptide (N-R-W-H-E, SEQ ID NO: 2). […] The injection was repeated three times per week for 21 days. Two days after the last treatment the animals were killed.
7 μm thick paraffin sections were deparaffinized and rehydrated. For P-Met staining antigen unmasking was achieved by boiling the slides in 1 mM EDTA pH 8.0 followed by incubation for 15 minutes at a sub-boiling temperature, for CD31 staining the sections were treated with Proteinase K (8 μg/ml) for 10 min at 37° C. For immunofluorescence staining of P-Met, unspecific binding was blocked with 5% goat serum (DAKO, Glostrup, Denmark) (diluted in 1×PBS/0.3% Triton X-100) for 60 minutes. In the case of immunohistochemistry, endogenous peroxidases were at first blocked with 3% H2O2 in PBS followed by incubation with biotin blocking system (Dako, Glostrup, Denmark) and then unspecific binding was inhibited by incubation with 5% FCS in PBS. The sections were incubated with the P-Met antibody (D26, dilution 1:50 in 1×PBS/1% BSA/0.3% Triton X-100), Met antibody (C-28, dilution 1:50), GFP antibody (sc-101525, dilution 1:50) or antibody (5 μg/ml) over night or VFF18 (5 μg/ml) o/n at 4° C. After washing in PBS the sections were incubated with Alexa Fluor R 546 goat anti-rabbit (in case of immunofluorescence P-Met and Met staining, dilution 1:500) or a biotinylated secondary antibody (for immunohistochemical stainings rabbit anti-rat antibody for VFF18 and CD31, goat anti-rabbit for P-Met, cleaved Caspase-3 and cleaved Caspase-8 and rabbit anti-mouse for GFP, dilution 1:500) for 45 minutes. For DAB (3,3′-diaminobenzidine) staining the sections were treated with a streptavidin-peroxidase conjugate (Dako, Glostrup, Denmark) and developed with DAB substrate system (3,3′-diaminobenzidine; Biozol, Eching, Germany) For immunofluorescence DAPI was used for nuclear staining.
The three CD44v6 specific compounds (v6 5mer, PEG840-v6 5mer and PEG2000-v6 5mer of human origin) and a control peptide were applied in three concentrations (2 μg, 20 μg, 200 μg per injection) three times per week i.p. for 4 weeks. One week before start of the treatment the L3.6p1 tumor cells were orthotopically implanted into nude mice.
Animals were implanted orthotopically with L3.6p1 cells. Tumor growth was allowed for one week before the treatment with the linear v6 14mer, the cyclic v6 8mer as well as the control peptide (rat v6 14mer) was started. All peptides were injected three times per week at a concentration of 0.2, 2 and 10 μg per injection for 3 weeks. At the end of the treatment animals were sacrificed.
A comparison of different CD44v6 peptide derivatives was performed in animals bearing a orthotopic L3.6p1 tumor. 10 groups of 5 animals each received a dose of 20 μg peptide per injection three times per week for 3 weeks with the compounds listed in Table 4. Three weeks after starting the treatment the animals were sacrificed and analyzed for macroscopic metastases and tumor volume.

For “KEQWFGNRWHEGYR [human 14mer, human CD44v6 14mer peptide]”, the “metastasis formation (liver)” value reads like this: (0.2 μg per injection three times per week for 3 weeks) “showed liver metastases but the average number of metastases per animal was reduced”; (2 μg per injection i.p. three times per week) “showed liver metastases but the average number of metastases per animal was reduced”; (10 μg per injection three times per week for 3 weeks) “complete inhibition of metastatic spreading”; (20 μg per injection i.p. three times per week, start one week after implantation) “complete inhibition of metastasis”; (20 μg per injection i.p. three times per week, start one week after implantation, listed as human-specific peptide) “completely inhibited metastasis formation within the liver”. In addition, the “tumor angiogenesis (vessel number and vessel size, CD31 staining)” value (20 μg i.p. three times per week) is recorded as “decreased angiogenesis”. Moreover, where the note is “20 μg i.p. three times per week for three weeks”, the “Met activation in the tumor (immunofluorescence for phospho-Met and Met)” value was “completely repressed Met activation”. Further, the “outgrowth / size of the primary tumor” value is, setting by setting: (start one week after implantation, listed as CD44v6 14mer) “significant reduction in tumor growth”; (start one week after implantation, listed as human v6 peptide) “strongly repressed”; (start one week after implantation, listed as v6 14mer) “strongest reduction of tumor size”.
